Experimental data as given in patent US7745651B2, “Cationic lipids and methods of use” (Protiva Biotherapeutics, Inc., priority 2004, dated 2010).
Where “and” joins values, the source holds several entries; their conditions need not be identical. Identical values can stand only once. Entries after “also recorded” stand apart in the source; their conditions may differ.

Experiments:
Neuro2A cells = test: Cellular uptake of 3H-CHE-labeled SNALP; format: cell-based; conditions: 24 hours
Procedure: Cellular Uptake: SNALP were prepared incorporating the non-exchangeable tritium-labeled lipid cholesteryl hexadecyl ether (3H—CHE) (11.1 μCi/μmol total lipid) [Bally et al., in Liposome Technology, Vol. III, pp. 27-41, CRC Press (1993)]. Neuro2A cells (ATCC, VA, USA) were plated in 12 well plates at 1.6×10^5 cells per well in minimal essential media. The following day, media was removed and replaced with media containing radiolabelled SNALP at 0.5 μg/mL nucleic acid. After 24 hours, the media and unincorporated SNALP were removed, adherent cells gently washed 4 times with PBS, and then lysed with 600 μL Lysis Buffer (250 mM phosphate with 0.1% Triton X-100). The resulting cell lysate (500 μL) was added to glass scintillation vials containing 5 mL Picofluor 40 (Perkin Elmer) and ^3H—CHE was determined using a Beckman LS6500 scintillation counter (Beckman Instruments). The protein content of cell lysates was determined using the Micro BCA assay (Pierce). Uptake was expressed as a percentage of the total amount of activity applied to the cells per mg of cellular protein.
The extent to which formulations are taken up by cells was measured with SNALP incorporating ^3H-labeled CHE [Bally et al., in Liposome Technology, Vol. III, pp. 27-41, CRC Press (1993)]. […] Uptake is expressed as a percentage of the total activity applied to the cells. […]

[1] = TNS assay, apparent pKa of cationic lipid incorporated in SNALP; conditions: TNS fluorescence, pH varied from 4.5 to 9.5
Procedure: TNS Assay: 20 μM of SNALP lipid and 6 μM of TNS were mixed in a fluorescence cuvette in 2 mL of 20 mM sodium phosphate, 25 mM citrate, 20 mM ammonium acetate and 150 mM NaCl, at a pH that was varied from 4.5 to 9.5. Fluorescence was determined at each pH using a Varian Eclipse Spectrofluorometer (Varian Inc) with settings of λex=322 nm, λem=431 nm. Fluorescence for each system at the various pH was then normalized to the value at pH 4.5. The pKa values are the point at which 50% of the molecules present are charged. By assuming that minimum fluorescence represents zero charge, and maximum fluorescence represents 100% charge, pKa can be estimated by measuring the pH at the point exactly half way between the values of minimum and maximum charge.
TNS is electrostatically attracted to positively charged membranes. Subsequent adsorption to the lipid membrane results in the immediate environment of the TNS becoming more lipophilic, removing the water molecules that otherwise quench TNS fluorescence. Since TNS is more readily absorbed by positively charged membranes, TNS fluorescence is an indicator of positive membrane surface charge. The surface pKa values of each SNALP formulation were determined by varying the local pH in the presence of TNS.

[2] = Nucleic acid encapsulation in SNALP, RiboGreen fluorescence assay; format: physicochemical; conditions: SNALP DSPC:Chol:PEG-C-DMA:Cationic Lipid 20:48:2:30 molar percent, siRNA; mean of 3 experiments, error is standard deviation
Procedure: SNALP Preparation: SNALP with a lipid composition of DSPC:Chol:PEG-C-DMA:Cationic Lipid (20:48:2:30 molar percent) were prepared using the spontaneous vesicle formation by ethanol dilution method [Jeffs et al., Pharm. Res. In Press (2005)]. The sample's were diafiltered against 100 mL of PBS (20 wash volumes) using a cross flow ultrafiltration cartridge (Amersham Biosciences, Piscataway, N.J.) and sterile filtered through Acrodisc 0.2 μm Posidyne filters (Pall Corp., Ann Arbor, Mich.). The siRNA concentration of final samples was determined using the RiboGreen assay and a siRNA standard curve. Particle size and polydispersity was determined using a Malvern Instruments Zetasizer 3000HSA (Malvern, UK). Nucleic acid encapsulation was determined using a RiboGreen assay, comparing fluorescence in the presence and absence of Triton X-100. RiboGreen fluorescence was measured using a Varian Eclipse Spectrofluorometer (Varian Inc) with λex=500 nm, λem=525 nm.
This example sets forth the physical properties of the SNALP formulations described herein. SNALP containing the various cationic lipids were prepared as described and encapsulated RNA and particle size assessed (Table 1 below). […] Polydispersity of all formulations was low, indicating a narrow distribution of particle size. RNA encapsulation in the final particles was 84-85% of the total.
Percentage Encapsulation was determined using the RiboGreen fluorescence assay to measure the amount of encapsulated nucleic acid relative to the total nucleic acid present. Particle diameter and polydispersity was measured using a Malvern Zetasizer. Values are the mean of 3 separate experiments, the error is standard deviation.

[3] = 31P-NMR of DPPS/cationic lipid MLV, bilayer-to-hexagonal phase transition temperature; format: physicochemical; conditions: MLV of DPPS and cationic lipid 1:1 molar ratio, 10 mM sodium citrate pH 4
Procedure: ^31P Nuclear Magnetic Resonance Spectroscopy: Multilamellar vesicles (MLV) were prepared comprising DPPS and cationic lipid at a molar ratio of 1:1. This was accomplished by drying the lipids from chloroform solution, transferring to 10 mm NMR tubes, and hydrating in 1.5 mL of 10 mM sodium citrate, pH 4. Free induction decays (FIDs) corresponding to 1000 scans were obtained with a 3.0 μs, 60o pulse with a 1 s interpulse delay and a spectral width of 25000 Hz. A gated two-level proton decoupling was used to ensure sufficient decoupling with minimum sample heating. An exponential multiplication corresponding to 50 Hz of line broadening was applied to the FIDs prior to Fourier transformation. The sample temperature (+/−1° C.) was regulated using a Bruker B-VT1000 variable temperature unit. Chemical shifts were referenced to 85% phosphoric acid as an external standard.
The significance of saturation with respect to phase transition temperature was investigated using ^31P-NMR. […] By determining the temperature at which the conversion occurs, the relative ease with which the lipids form the HII phase, their ‘fusogenicity’, can be determined.
MLV were prepared using the anionic lipid DPPS in a 1:1 molar ratio with each cationic lipid. The ^31P-NMR spectra of the MLV were measured at various temperatures. […]

Row | SMILES | cellular uptake of 3H-CHE-labeled SNALP (Neuro2A cells) | apparent (surface) pKa of cationic lipid in SNALP [1] | % Encapsulation [2] | bilayer-to-hexagonal (HII) phase transition temperature (Tc) [3]
1 | CC/C=C\C/C=C\C/C=C\CCCCCCCCOCC(CN(C)C)OCCCCCCCC/C=C\C/C=C\C/C=C\CC (stereo not shown) [DLenDMA, 1,2-Dilinolenyloxy-N,N-dimethylaminopropane] | particularly limited; also recorded: limited when compared to that of the DLinDMA formulation | 6.7 | 85 ± 1% | –
2 | CCCCCCCCCCCCCCCCCC[N+](C)(C)CCCCCCCCCCCCCCCCCC [DSDMA, Distearyldimethylammonium] | greatest degree of uptake; also recorded: taken up most readily | ~7.6 | 67% and 67 ± 3% | > 50 °C
